“And” between values parts separate entries of the source, which are not always exact repeats. Equal values may be shown once.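 Values below derive from 48-hour exposures of cells grown in 96-well plates, with endpoints linearly interpolated between the two concentrations bracketing the appropriate inhibition level. GI50 marks 50% less growth. TGI denotes the concentration required for complete inhibition of growth.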
Tested on: K-562 leukemia
Assay: DTP human tumour cell line panel, 48 h

SMILES | GI50 [µM] | TGI [µM]
CCCCCCCCCCC(O)C1CCC(C2CCC(C(O)CCCCC(O)CCCCCC(O)CC3=CC(C)OC3=O)O2)O1 (stereo not drawn) | 1.81 | > 25

Tested on: SK-OV-3 ovarian
Assay: DTP human tumour cell line panel, 48 h

SMILES | TGI [µM]
N#CC1=C(N2CCCC2)NC(=O)CC1=O | > 100
CC(C)(C)C1=CC(=CC=C2C=CN(CCCCCCCCCCCO)C=C2)C=C(C(C)(C)C)C1=O | 5.81
O=C(c1ccc(Cl)cc1Cl)N(C(=O)N1CCCCC1)c1ccccc1 | > 100
CSc1ccc(C2C(Cl)C(=O)N2NC(=O)c2c(Cl)c(Cl)c(Cl)c(Cl)c2-c2nc3ccccc3[nH]2)cc1 (stereo not drawn) | 93.4
CC(C)CC(N)C(=O)O (stereo not drawn) | > 100
O=C1NC(Nc2cccc(Cl)c2)=N/C1=C\c1ccc(Cl)c(Cl)c1 | 27.5
CCCCCCCCCCC(O)C1CCC(C2CCC(C(O)CCCCC(O)CCCCCC(O)CC3=CC(C)OC3=O)O2)O1 (stereo not drawn) | > 25

Tested on: SR leukemia
Assay: DTP human tumour cell line panel, 48 h

SMILES | TGI [µM]
N#CC1=C(N2CCCC2)NC(=O)CC1=O | > 100
CSc1ccc(C2C(Cl)C(=O)N2NC(=O)c2c(Cl)c(Cl)c(Cl)c(Cl)c2-c2nc3ccccc3[nH]2)cc1 (stereo not drawn) | > 100
O=C1NC(Nc2cccc(Cl)c2)=N/C1=C\c1ccc(Cl)c(Cl)c1 | 7.37
CCCCCCCCCCC(O)C1CCC(C2CCC(C(O)CCCCC(O)CCCCCC(O)CC3=CC(C)OC3=O)O2)O1 (stereo not drawn) | > 25

Tested on: BT-549 breast
Assay: DTP human tumour cell line panel, 48 h

SMILES | TGI [µM]
CC(C)(C)C1=CC(=CC=C2C=CN(CCCCCCCCCCCO)C=C2)C=C(C(C)(C)C)C1=O | 4.44
O=C(c1ccc(Cl)cc1Cl)N(C(=O)N1CCCCC1)c1ccccc1 | > 100
CSc1ccc(C2C(Cl)C(=O)N2NC(=O)c2c(Cl)c(Cl)c(Cl)c(Cl)c2-c2nc3ccccc3[nH]2)cc1 (stereo not drawn) | 48.1
CC(C)CC(N)C(=O)O (stereo not drawn) | > 100
O=C1NC(Nc2cccc(Cl)c2)=N/C1=C\c1ccc(Cl)c(Cl)c1 | 25.1
CCCCCCCCCCC(O)C1CCC(C2CCC(C(O)CCCCC(O)CCCCCC(O)CC3=CC(C)OC3=O)O2)O1 (stereo not drawn) | > 25

Tested on: HL-60(TB) leukemia
Assay: DTP human tumour cell line panel, 48 h

SMILES | TGI | GI50 [µM]
N#CC1=C(N2CCCC2)NC(=O)CC1=O | > 100 µM | 
CC(C)(C)C1=CC(=CC=C2C=CN(CCCCCCCCCCCO)C=C2)C=C(C(C)(C)C)C1=O | 3.71 µM | 
O=C(c1ccc(Cl)cc1Cl)N(C(=O)N1CCCCC1)c1ccccc1 | > 100 µM | 
CSc1ccc(C2C(Cl)C(=O)N2NC(=O)c2c(Cl)c(Cl)c(Cl)c(Cl)c2-c2nc3ccccc3[nH]2)cc1 (stereo not drawn) | 55.1 µM | 
CC(C)CC(N)C(=O)O (stereo not drawn) | > 100 µM | 
O=C1NC(Nc2cccc(Cl)c2)=N/C1=C\c1ccc(Cl)c(Cl)c1 | 15.1 µM | 
CCCCCCCCCCC(O)C1CCC(C2CCC(C(O)CCCCC(O)CCCCCC(O)CC3=CC(C)OC3=O)O2)O1 (stereo not drawn) | 8.62 µM and > 25 µM | > 25

Tested on: MDA-MB-231 breast
Assay: DTP human tumour cell line panel, 48 h

SMILES | TGI [µM] | GI50 [µM]
N#CC1=C(N2CCCC2)NC(=O)CC1=O | > 100 | 
CC(C)(C)C1=CC(=CC=C2C=CN(CCCCCCCCCCCO)C=C2)C=C(C(C)(C)C)C1=O | 3.28 | 
O=C(c1ccc(Cl)cc1Cl)N(C(=O)N1CCCCC1)c1ccccc1 | > 100 | 
CC(C)CC(N)C(=O)O (stereo not drawn) | > 100 | 
CCCCCCCCCCC(O)C1CCC(C2CCC(C(O)CCCCC(O)CCCCCC(O)CC3=CC(C)OC3=O)O2)O1 (stereo not drawn) | > 25 | 4.82

Tested on: EKVX NSCLC
Assay: DTP human tumour cell line panel, 48 h

SMILES | TGI [µM] | GI50 [µM]
N#CC1=C(N2CCCC2)NC(=O)CC1=O | > 100 | 
CC(C)(C)C1=CC(=CC=C2C=CN(CCCCCCCCCCCO)C=C2)C=C(C(C)(C)C)C1=O | 5.61 | 
O=C(c1ccc(Cl)cc1Cl)N(C(=O)N1CCCCC1)c1ccccc1 | > 100 | 
CSc1ccc(C2C(Cl)C(=O)N2NC(=O)c2c(Cl)c(Cl)c(Cl)c(Cl)c2-c2nc3ccccc3[nH]2)cc1 (stereo not drawn) | 37.9 | 
O=C1NC(Nc2cccc(Cl)c2)=N/C1=C\c1ccc(Cl)c(Cl)c1 | 12.2 | 
CCCCCCCCCCC(O)C1CCC(C2CCC(C(O)CCCCC(O)CCCCCC(O)CC3=CC(C)OC3=O)O2)O1 (stereo not drawn) | > 25 | > 25

Tested on: SK-MEL-2 melanoma
Assay: DTP human tumour cell line panel, 48 h

SMILES | TGI [µM] | GI50 [µM]
N#CC1=C(N2CCCC2)NC(=O)CC1=O | > 100 | 
CC(C)(C)C1=CC(=CC=C2C=CN(CCCCCCCCCCCO)C=C2)C=C(C(C)(C)C)C1=O | 3.5 | 
O=C(c1ccc(Cl)cc1Cl)N(C(=O)N1CCCCC1)c1ccccc1 | > 100 | 
CSc1ccc(C2C(Cl)C(=O)N2NC(=O)c2c(Cl)c(Cl)c(Cl)c(Cl)c2-c2nc3ccccc3[nH]2)cc1 (stereo not drawn) | > 100 | 
CC(C)CC(N)C(=O)O (stereo not drawn) | > 100 | 
O=C1NC(Nc2cccc(Cl)c2)=N/C1=C\c1ccc(Cl)c(Cl)c1 | 6.77 | 
CCCCCCCCCCC(O)C1CCC(C2CCC(C(O)CCCCC(O)CCCCCC(O)CC3=CC(C)OC3=O)O2)O1 (stereo not drawn) | > 25 | 3.62

Tested on: CCRF-CEM leukemia
Assay: DTP human tumour cell line panel, 48 h

SMILES | TGI [µM]
N#CC1=C(N2CCCC2)NC(=O)CC1=O | > 100
CC(C)(C)C1=CC(=CC=C2C=CN(CCCCCCCCCCCO)C=C2)C=C(C(C)(C)C)C1=O | 11.7
O=C(c1ccc(Cl)cc1Cl)N(C(=O)N1CCCCC1)c1ccccc1 | > 100
CC(C)CC(N)C(=O)O (stereo not drawn) | > 100
O=C1NC(Nc2cccc(Cl)c2)=N/C1=C\c1ccc(Cl)c(Cl)c1 | 35.3

— PubChem BioAssay (NCI)
